What was measured:
Canis familiaris [1] = assay: No. of cases tested was measured on ouabain induced ventricular arrhythmia at 5 mg/kg, iv in dogs; 2/2; assay type: functional, Canis lupus familiaris, Cardiac ventricle
Mus musculus [2] = species: Mus musculus; assay: Inhibition of chloroform induced ventricular arrhythmia; assay type: functional, Cardiac ventricle
[3] = biological target: T1, Muscarinic acetylcholine receptor (Rattus norvegicus) (UniProt P08482+P08483+P08485+P08911+P10980); assay: Inhibitory effect on muscarinic acetylcholine receptor binding affinity at a concentration of (10e -5)M; assay type: protein assay
[4] = biological target: T1, Muscarinic acetylcholine receptor (Rattus norvegicus); assay: Inhibitory effect on muscarinic acetylcholine receptor binding affinity at a concentration of (10e -6)M; assay type: protein assay
Canis familiaris [5] = assay: No. of cases tested was measured on ouabain induced ventricular arrhythmia at 5 mg/kg, iv in dogs; 3/6; assay type: functional, Canis lupus familiaris, Cardiac ventricle
Mus musculus [6] = assay: Dose (po) required to double the prodrug pupil size; assay type: functional
Mus musculus [7] = species: Mus musculus; assay: Compound was evaluated by measuring the 50% inhibition of chloroform induced ventricular arrhythmia in mice; assay type: functional; conditions: Cardiac ventricle
[8] = Ratio of ED100 (Dose po required to double the prodrug pupil size in mice) to that of ED50 (50% inhibition of chloroform induced ventricular arrhythmia in mice); assay type: functional
Canis familiaris [9] = assay: No. of cases tested was measured on ouabain induced ventricular arrhythmia at 5 mg/kg, iv in dogs; 0/2; assay type: functional, Canis lupus familiaris, Cardiac ventricle
Canis familiaris [10] = assay: Antiarrhythmic activity in ouabain-induced ventricular arrhythmia in dog at compound concentration of 10 mg/kg; assay type: functional, Canis lupus familiaris, Heart
Canis familiaris [11] = assay: No. of cases tested was measured on ouabain induced ventricular arrhythmia at 5 mg/kg, iv in dogs; 3/3; assay type: functional, Canis lupus familiaris, Cardiac ventricle
Canis familiaris [12] = assay: No. of cases tested was measured on ouabain induced ventricular arrhythmia at 5 mg/kg, iv in dogs; 0/3; assay type: functional, Canis lupus familiaris, Cardiac ventricle
Canis familiaris [13] = assay: No. of cases tested was measured on ouabain induced ventricular arrhythmia at 5 mg/kg, iv in dogs; 1/3; assay type: functional, Canis lupus familiaris, Cardiac ventricle
Canis familiaris [14] = assay: No. of cases tested was measured on ouabain induced ventricular arrhythmia at dose (10mg/Kg, iv); 0/2; assay type: functional, Canis lupus familiaris, Cardiac ventricle
Canis familiaris [15] = assay: No. of cases tested was measured on ouabain induced ventricular arrhythmia at 5 mg/kg, iv in dogs; 6/6; assay type: functional, Canis lupus familiaris, Cardiac ventricle
Canis familiaris [16] = assay: No. of cases tested was measured on ouabain induced ventricular arrhythmia at 5 mg/kg, iv in dogs; 2/3; assay type: functional, Canis lupus familiaris, Cardiac ventricle
Canis familiaris [17] = assay: No. of cases tested was measured on ouabain induced ventricular arrhythmia at 5 mg/kg, iv in dogs; 1/4; assay type: functional, Canis lupus familiaris, Cardiac ventricle
Canis familiaris [18] = assay: No. of cases tested was measured on ouabain induced ventricular arrhythmia at 5 mg/kg, iv in dogs; 0/4; assay type: functional, Canis lupus familiaris, Cardiac ventricle
Canis familiaris [19] = assay: No. of cases tested was measured on ouabain induced ventricular arrhythmia at 5 mg/kg, iv in dogs; 1/7; assay type: functional, Canis lupus familiaris, Cardiac ventricle
Canis familiaris [20] = assay: No. of cases tested was measured on ouabain induced ventricular arrhythmia at 5 mg/kg, iv in dogs; 0/1; assay type: functional, Canis lupus familiaris, Cardiac ventricle
Canis familiaris [21] = assay: No. of cases tested was measured on ouabain induced ventricular arrhythmia at dose 10mg/Kg, iv; 0/3; assay type: functional, Canis lupus familiaris, Cardiac ventricle
[22] = Mus musculus, Cardiac ventricle, read-out: ED50

Row | Structure (SMILES) | ED50 (Mus musculus [2]; [22]) [mg/kg] | inhibition [3] [%] | inhibition [4] [%] | No. positive cases/tested (Canis familiaris [9]) | other results
1 | CCN(CC)CC/C=C1/c2ccccc2OCc2ncccc21 | > 17 | 80 | 28 |  | No. positive cases/tested (Canis familiaris [1]): 2
2 | CCN(CC)CCNC1c2cc(OC)ccc2OCc2ncccc21 (configuration not stated) [listing 1 of 2 here] |  |  |  |  | No. positive cases/tested (Canis familiaris [5]): 3; ED100 (Mus musculus [6]): 194 mg/kg; ED50 (Mus musculus [7]): 62 mg/kg; Ratio [8]: 4
3 | CCN(CC)CCNC1c2ccc(OC)cc2OCc2ncccc21 (configuration not stated) | > 100 | 7 | 14 | 0 | 
4 | CCN(CC)CCNC1c2cc(OC)ccc2OCc2ncccc21 (configuration not stated) [listing 2 of 2 here] |  | 8 | -3 |  | 
5 | COc1ccc2c(c1)C(NN1CCN(C)CC1)c1cccnc1CO2 (configuration not stated) | > 100 | 7 | 2 | 0 | 
6 | CCN1CCCC1CNC1c2cc(OC)ccc2OCc2ncccc21 (stereo in doubt; 26) [listing 1 of 2 here] |  | 23 | 2 |  | 
7 | COc1ccc2c(c1)C(NCCN1CCOCC1)c1cccnc1CO2 (configuration not stated) | > 100 | 0 | 0 | 0 | 
8 | CCN(CC)CCNC1c2cc(OC)ccc2OCc2ncccc21 (racemic) |  |  |  |  | Inhibition (Canis familiaris [10]): 76%
9 | COc1ccc2c(c1)C(NCCCNC1CCCCC1)c1cccnc1CO2 (configuration not stated) | > 100 | -1 | -1 |  | No. positive cases/tested (Canis familiaris [11]): 3
10 | CCN(CC)CCSC1c2cc(OC)ccc2OCc2ncccc21 (configuration not stated) | 31 | 20 | 1 |  | No. positive cases/tested (Canis familiaris [12]): 0
11 | COc1ccc2c(c1)C(NCCN1C(C)CCCC1C)c1cccnc1CO2 (configuration not stated) | > 100 | 11 | 2 |  | No. positive cases/tested (Canis familiaris [13]): 1
12 | CCN(CC)CCCNC1c2cc(OC)ccc2OCc2ncccc21 (configuration not stated) | 50 | 24 | 4 |  | No. positive cases/tested (Canis familiaris [13]): 1
13 | CCN(CC)CCNC1c2cc(OC)c(OC)cc2OCc2ncccc21 (configuration not stated) | > 100 | 2 | 7 | 0 | 
14 | Cc1cccc(C)c1OCC(C)N (configuration not stated) [MEXILETINE] | 71 | -3 | -1 |  | Ratio [8]: 1.7
15 | CCN(CC)CCNC1c2cc(N(C)C)ccc2OCc2ncccc21 (configuration not stated) | > 100 | 19 | 4 |  | No. positive cases/tested (Canis familiaris [14]): 0
16 | CCN(CC)CCNC1c2cc(OC)ccc2OCc2ncccc21 (single isomer, unassigned; (-)) |  |  |  |  | Inhibition (Canis familiaris [10]): 94%
17 | COc1ccc2c(c1)C(NCCN)c1cccnc1CO2 (configuration not stated) | > 100 | 5 | -1 | 0 | 
18 | CCN(CC)CCNC1c2cc(C)ccc2OCc2ncccc21 (configuration not stated) | > 100 |  |  |  | 
19 | COc1ccc2c(c1)C(NCCN(C)C)c1cccnc1CO2 (configuration not stated) | > 100 | 15 | 3 | 0 | 
20 | CCNCCNC1c2cc(OC)ccc2OCc2ncccc21 (configuration not stated) | > 100 | 1 | 2 |  | No. positive cases/tested (Canis familiaris [12]): 0
21 | CCN(CC)CCNC1c2cc(OC(C)C)ccc2OCc2ncccc21 (configuration not stated) | 53 | 12 | 3 | 0 | 

Row | Structure (SMILES) | ED50 (Mus musculus [2]; [22]) [mg/kg] | inhibition [3] [%] | inhibition [4] [%] | No. positive cases/tested (Canis familiaris [9]) | other results
22 | COc1ccc2c(c1)C(NCCN1[C@H](C)CC[C@@H]1C)c1cccnc1CO2 (some centres not stated) | > 100 | 15 | 3 |  | No. positive cases/tested (Canis familiaris [13]): 1
23 | CC(C)N(CCC(C(N)=O)(c1ccccc1)c1ccccn1)C(C)C (configuration not stated) [DISOPYRAMIDE] | 35 | 7 | -1 |  | No. positive cases/tested (Canis familiaris [15]): 6; ED100 (Mus musculus [6]): 20 mg/kg; Ratio [8]: 0.6
24 | CCN(CC)CC/C=C1\c2ccccc2OCc2ncccc21 | 100 | 45 | 6 |  | No. positive cases/tested (Canis familiaris [16]): 2
25 | COc1ccc2c(c1)C(NCCN1CCCC1)c1cccnc1CO2 (configuration not stated) | > 100 | 12 | 3 |  | No. positive cases/tested (Canis familiaris [12]): 0
26 | CCN(CC)CC/C=C1/c2cc(OC)ccc2OCc2ncccc21 | 14 | 26 | 5 |  | No. positive cases/tested (Canis familiaris [17]): 1
27 | CCN1CCCC1CNC1c2cc(OC)ccc2OCc2ncccc21 (stereo in doubt; 27) [listing 1 of 2 here] | 58 |  |  |  | No. positive cases/tested (Canis familiaris [13]): 1
28 | CCN(CC)CCNC1c2cccnc2COc2c(OC)cccc21 (configuration not stated) | > 100 | 37 | 12 | 0 | 
29 | CCN(CC)CCNC1c2cc(Cl)ccc2OCc2ncccc21 (configuration not stated) | > 100 |  |  |  | 
30 | CCN(CC)CCNC1c2cc(OC)ccc2OCc2ncccc21 (single isomer, unassigned; (+)) |  |  |  |  | Inhibition (Canis familiaris [10]): 51%
31 | CCN1CCCC1CNC1c2cc(OC)ccc2OCc2ncccc21 (stereo in doubt; 26) [listing 2 of 2 here] |  |  |  | 0 | ED50 (Mus musculus [2]): 61 mg/kg
32 | COc1ccc2c(c1)C(NCCCN(C)C)c1cccnc1CO2 (configuration not stated) | > 100 | 5 | 1 | 0 | 
33 | CCN(CC)CC/C=C1\c2cc(OC)ccc2OCc2ncccc21 | > 100 | 27 | 3 |  | No. positive cases/tested (Canis familiaris [18]): 0
34 | COc1ccc2c(c1)C(N1CCN(C)CC1)c1cccnc1CO2 (configuration not stated) | 81 | 11 | 0 | 0 | 
35 | CCN(CC)CCNC1c2cc(F)ccc2OCc2ncccc21 (configuration not stated) | > 100 |  |  | 0 | 
36 | CCN(CC)CCNC1c2cc(O)ccc2OCc2ncccc21 (configuration not stated) | > 100 | -1 | 0 |  | No. positive cases/tested (Canis familiaris [19]): 1
37 | CCN(CC)CC(=O)NC1c2cc(OC)ccc2OCc2ncccc21 (configuration not stated) | > 100 | 1 | -3 | 0 | 
38 | COc1ccc2c(c1)C(NCCN1[C@@H](C)CC[C@@H]1C)c1cccnc1CO2 (some centres not stated) | 100 | 6 | -2 |  | No. positive cases/tested (Canis familiaris [20]): 0
39 | COc1ccc2c(c1)C(NCCN(C(C)C)C(C)C)c1cccnc1CO2 (configuration not stated) | > 100 | 17 | 4 | 0 | 
40 | CCN1CCCC1CNC1c2cc(OC)ccc2OCc2ncccc21 (stereo in doubt; 27) [listing 2 of 2 here] |  | 25 | 3 |  | 
41 | CCN(CC)CCNC1c2ccccc2OCc2ncccc21 (configuration not stated) | 93 |  |  |  | No. positive cases/tested (Canis familiaris [21]): 0

— ChEMBL document CHEMBL1125015, “Synthesis and antiarrhythmic activity of 5,11-dihydro[1]benzoxepino[3,4-b]pyridines” (1990)
